Experimental data: PubChem BioAssay AID1963826 (Molecular Pharmacology Branch, DTP, NCI, 2024)
pIC50: −log10 of the molar value.

System: 926638-142-R-J1-PDC complex spheroid viability
Assay: Anticancer human tumor 926638-142-R-J1-PDC patient-derived endometrial carcinoma cell line growth inhibition [POLQ]
Conditions: for pIC50: curve of first compound; for viability, T/C: stronger effect = lower value; active means viability on the fitted dose curve at most 10% of control; inactive means the rest
Procedure, shortened: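 Patient-derived tumour cells were co-cultured with HUVEC and mesenchymal stem cells as multicellular spheroids at 37 °C. They were treated with POLQ inhibitors (novobiocin, ART-558, RP6685) alone or combined with other agents. Top concentrations were at or near clinical Cmax (otherwise 10 microM; SN-38 at 1 microM), decreasing in half-log steps.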

[1] = second compound 0.0316 µM, first compound 0.0316 µM
[2] = second compound 0.0316 µM, first compound 0.1 µM
[3] = second compound 0.0316 µM, first compound 0.316 µM
[4] = second compound 0.0316 µM, first compound 1 µM
[5] = second compound 0.1 µM, first compound 0.0316 µM
[6] = second compound 0.1 µM, first compound 0.1 µM
[7] = second compound 0.1 µM, first compound 0.316 µM
[8] = second compound 0.1 µM, first compound 1 µM
[9] = second compound 0.316 µM, first compound 0.0316 µM
[10] = second compound 0.316 µM, first compound 0.1 µM
[11] = second compound 0.316 µM, first compound 0.316 µM
[12] = second compound 0.316 µM, first compound 1 µM
[13] = second compound 1 µM, first compound 0.0316 µM
[14] = second compound 1 µM, first compound 0.1 µM
[15] = second compound 1 µM, first compound 0.316 µM
[16] = second compound 1 µM, first compound 1 µM
[17] = second compound 3.16 µM, first compound 0.0316 µM
[18] = second compound 3.16 µM, first compound 0.1 µM
[19] = second compound 3.16 µM, first compound 0.316 µM
[20] = second compound 3.16 µM, first compound 1 µM
[21] = second compound 10 µM, first compound 0.0316 µM
[22] = second compound 10 µM, first compound 0.1 µM
[23] = second compound 10 µM, first compound 0.316 µM
[24] = second compound 10 µM, first compound 1 µM
[25] = second compound 0.0316 µM, first compound 0.00316 µM
[26] = second compound 0.0316 µM, first compound 0.01 µM
[27] = second compound 0.1 µM, first compound 0.00316 µM
[28] = second compound 0.1 µM, first compound 0.01 µM
[29] = second compound 0.316 µM, first compound 0.00316 µM
[30] = second compound 0.316 µM, first compound 0.01 µM
[31] = second compound 1 µM, first compound 0.00316 µM
[32] = second compound 1 µM, first compound 0.01 µM
[33] = second compound 3.16 µM, first compound 0.00316 µM
[34] = second compound 3.16 µM, first compound 0.01 µM
[35] = second compound 10 µM, first compound 0.00316 µM
[36] = second compound 10 µM, first compound 0.01 µM
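Further: spheroids exposed to drugs for one week before readout.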
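Wherever viability, T/C is given: percent viability relative to DMSO vehicle control wells set as 100%.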

CC1COCCN1c1cc(C2(O)CC3CCC(C2)O3)c2cnn(-c3ccn[nH]3)c2n1 (stereo unspecified) + Cc1cccc(N(C)C(=O)C2C(O)CCN2c2nc(C)cc(C(F)(F)F)c2C#N)c1
6.71: pIC50 (second compound 0.316 µM)
active: viability, T/C (second compound 0.0316 µM, first compound 3.16 µM) 8.43% | viability, T/C (second compound 0.0316 µM, first compound 10 µM) 2.27% | viability, T/C (second compound 0.1 µM, first compound 3.16 µM) 6.79% | viability, T/C (second compound 0.1 µM, first compound 10 µM) 1.49% | viability, T/C (second compound 0.316 µM, first compound 3.16 µM) 9.91% | viability, T/C (second compound 0.316 µM, first compound 10 µM) 1.44% | viability, T/C (second compound 1 µM, first compound 3.16 µM) 7.71% | viability, T/C (second compound 1 µM, first compound 10 µM) 1.6% | viability, T/C (second compound 3.16 µM, first compound 3.16 µM) 7.14% | viability, T/C (second compound 3.16 µM, first compound 10 µM) 1.53% | viability, T/C (second compound 10 µM, first compound 3.16 µM) 6.57% | viability, T/C (second compound 10 µM, first compound 10 µM) 1.3%
6.84: pIC50 (second compound 3.16 µM)
inactive: viability, T/C [1] 102% | viability, T/C [2] 64.7% | viability, T/C [3] 34.5% | viability, T/C [4] 13.3% | viability, T/C [5] 100% | viability, T/C [6] 79.8% | viability, T/C [7] 35.8% | viability, T/C [8] 12.2% | viability, T/C [9] 88.7% | viability, T/C [10] 67.5% | viability, T/C [11] 37.9% | viability, T/C [12] 11.6% | viability, T/C [13] 85.7% | viability, T/C [14] 71% | viability, T/C [15] 35.8% | viability, T/C [16] 14% | viability, T/C [17] 85.9% | viability, T/C [18] 61% | viability, T/C [19] 26.1% | viability, T/C [20] 13.9% | viability, T/C [21] 97.7% | viability, T/C [22] 72.9% | viability, T/C [23] 33.5% | viability, T/C [24] 13.2%
6.70: pIC50 (second compound 1 µM) | pIC50 (second compound 10 µM)
6.66: pIC50 (second compound 0.1 µM)
6.76: pIC50 (second compound 0.0316 µM)

C=CCn1c(=O)c2cnc(Nc3ccc(N4CCN(C)CC4)cc3)nc2n1-c1cccc(C(C)(C)O)n1 + Nc1ccc(C#CCN(C(=O)Cc2ncc(C(F)(F)F)cc2C(F)(F)F)c2ccc(F)cc2)nn1
inactive: viability, T/C [25] 100% | viability, T/C [26] 97.9% | viability, T/C [1] 80.7% | viability, T/C [2] 63% | viability, T/C [3] 57.5% | viability, T/C [4] 44.9% | viability, T/C [27] 122% | viability, T/C [28] 90.6% | viability, T/C [5] 92.3% | viability, T/C [6] 81.3% | viability, T/C [7] 56.1% | viability, T/C [8] 43.3% | viability, T/C [29] 109% | viability, T/C [30] 95.7% | viability, T/C [9] 95% | viability, T/C [10] 80.5% | viability, T/C [11] 64.6% | viability, T/C [12] 42% | viability, T/C [31] 116% | viability, T/C [32] 94.4% | viability, T/C [13] 80.5% | viability, T/C [14] 72.7% | viability, T/C [15] 57.1% | viability, T/C [16] 37.6% | viability, T/C [33] 103% | viability, T/C [34] 88.9% | viability, T/C [17] 80% | viability, T/C [18] 84.4% | viability, T/C [19] 60.2% | viability, T/C [20] 40.6% | viability, T/C [35] 76.5% | viability, T/C [36] 95.2% | viability, T/C [21] 88.9% | viability, T/C [22] 67.3% | viability, T/C [23] 49.1% | viability, T/C [24] 42.6%
6.23: pIC50 (second compound 0.0316 µM)
6.17: pIC50 (second compound 0.316 µM)
6.21: pIC50 (second compound 3.16 µM)
6.20: pIC50 (second compound 0.1 µM)
6.34: pIC50 (second compound 1 µM)
6.58: pIC50 (second compound 10 µM)

CC[C@@]1(O)C(=O)OCc2c1cc1n(c2=O)Cc2cc3c(CN(C)C)c(O)ccc3nc2-1 + Nc1ccc(C#CCN(C(=O)Cc2ncc(C(F)(F)F)cc2C(F)(F)F)c2ccc(F)cc2)nn1
< 7.00: pIC50 (second compound 0.0316 µM) | pIC50 (second compound 0.1 µM) | pIC50 (second compound 0.316 µM)
7.14: pIC50 (second compound 10 µM)
inactive: viability, T/C (second compound 0.0316 µM, first compound 0.000316 µM) 105% | viability, T/C (second compound 0.0316 µM, first compound 0.001 µM) 96.1% | viability, T/C [25] 84% | viability, T/C [26] 73.4% | viability, T/C [1] 71.5% | viability, T/C [2] 46.6% | viability, T/C (second compound 0.1 µM, first compound 0.000316 µM) 112% | viability, T/C (second compound 0.1 µM, first compound 0.001 µM) 90% | viability, T/C [27] 81.6% | viability, T/C [28] 81.7% | viability, T/C [5] 69.2% | viability, T/C [6] 48.3% | viability, T/C (second compound 0.316 µM, first compound 0.000316 µM) 96.8% | viability, T/C (second compound 0.316 µM, first compound 0.001 µM) 109% | viability, T/C [29] 86.2% | viability, T/C [30] 66.6% | viability, T/C [9] 64.1% | viability, T/C [10] 56.3% | viability, T/C (second compound 1 µM, first compound 0.000316 µM) 100% | viability, T/C (second compound 1 µM, first compound 0.001 µM) 101% | viability, T/C [31] 89.6% | viability, T/C [32] 88.5% | viability, T/C [13] 71.2% | viability, T/C [14] 49.4% | viability, T/C (second compound 3.16 µM, first compound 0.000316 µM) 92.4% | viability, T/C (second compound 3.16 µM, first compound 0.001 µM) 92% | viability, T/C [33] 89.7% | viability, T/C [34] 78.6% | viability, T/C [17] 74.6% | viability, T/C [18] 48.1% | viability, T/C (second compound 10 µM, first compound 0.000316 µM) 91.2% | viability, T/C (second compound 10 µM, first compound 0.001 µM) 88.5% | viability, T/C [35] 80.2% | viability, T/C [36] 79.6% | viability, T/C [21] 65% | viability, T/C [22] 43.9%
7.01: pIC50 (second compound 1 µM)
7.02: pIC50 (second compound 3.16 µM)
